This is an account of results in US4263295A, “Psychoactive 3-(1-2-diarylethyl)-1,4,5,6-tetrahydro-1,2,4-triazines and their method of use” (The Dow Chemical Company, priority 1977, dated 1981).

For test [1], the system named is serum corticosteroid levels. Nature of the test: Block of stress-induced rise of serum corticosteroid levels (antianxiety). It is filed as in vivo. Particulars: stressed male rats, 20 mg/kg i.p.; for response vs control in vivo at 20 mg/kg: Rattus norvegicus, ip, saline control 100, values below 100% are indicative of activity, read-out: Serum Corticosteroid Levels μg %. As to the method: See British Medical Journal, 1971 (2), p. 310-313. Corticosteroid levels were compared between stressed male rats pretreated with 20 mg/kg of the active compound given by intraperitoneal injection to corticosteroid levels of stressed male rats pretreated with saline. Blood (3 ml) was collected by means of cardiac puncture after methoxyflurane anesthesia. Following clotting, the blood was centrifuged to separate the serum for use in the corticosteroid analysis. The analysis was carried out by adding 5 ml of methylene chloride to 300 μl of the serum sample and vortexing the sample for 15-20 seconds. The samples were then centrifuged at 41 xg for about 5 minutes. The lipid layer was removed by aspiration and 3 ml of the methylene chloride fraction was transferred to a clean tube. To this sample, 3 ml of fluorescence reagent (25% ethanol and 75% concentrated sulfuric acid) was added and vortexed for 5 seconds. Fluorescence development was complete in 20 minutes and was read on a Perkin-Elmer® fluorometer Model 204 at an exciter wavelength of 470 mμ and an analyzer wavelength of 530 mμ. This assay measures free cortisol and corticosterone. The corticosteroid values were calculated as follows: [formula] […] Values below 100% are indicative of activity.

In another test the test system is reserpine-induced ptosis. Put plainly: Protection against reserpine-induced ptosis (antidepressant). It is filed as in vivo. Particulars: Mus musculus; mice, 30 mg/kg i.p.; reserpine 2.5 mg/kg s.c. after 30 minutes; graded after 45 minutes; saline control 0. As to the method: Groups of four mice were administered 30 mg/kg of the 3-(1,2-diarylethyl)-1,4,5,6-tetrahydro-1,2,4-triazine compounds by intraperitoneal injection via an aqueous carrier. A similar group of mice serving as controls were injected only with the carrier. After 30 minutes, both groups of mice were injected subcutaneously with 2.5 mg/kg of reserpine.
Animals injected with the triazine compound were graded after 45 minutes on the following basis: no ptosis=0, partial ptosis=1, complete ptosis=2. Complete protection against reserpine-induced ptosis gives a value of 0 or 100%.

The next test concerns depression. Particulars: U.S. Pat. No. 3,471,486; Journal of Medicinal Chemistry, 12, 257 (1969); cited from earlier work.
The test system of a further test is anxiety. Put plainly: Antianxiety activity, test not specified (background and summary statements). Type of test: in vivo. Particulars: test not stated.

Structures can show the parent of a compound that is named as a salt.

Broadly, the inhibition is the drop in the measured response relative to a control, in per cent. A lower inhibition goes with a response near the control.

As for `c1ccc(CC(C2=NNCCN2)c2ccc3ccccc3c2)cc1` (stereo not drawn) [Example 10, 3-(1-(2-Naphthalenyl)-2-phenylethyl)-1,4,5,6-tetrahydro-1,2,4-triazine monohydrochloride], in test [1], the response vs control in vivo at 20 mg/kg was determined as 54%. In the test on reserpine-induced ptosis, this compound showed an inhibition at 30 mg/kg of 50%.

`Fc1cccc(CC(C2=NNCCN2)c2ccccc2)c1` (stereo not drawn) [Example 17]: the response vs control in vivo at 20 mg/kg in test [1] was found to be 62%. This compound also yielded an inhibition at 30 mg/kg in the test on reserpine-induced ptosis of 25%.

On to `Cl.Fc1ccc(CC(C2=NNCCN2)c2ccccc2)cc1` (stereo not drawn) [Example 1, 3-(2-(4-fluorophenyl)-1-phenylethyl)-1,4,5,6-tetrahydro-1,2,4-triazine monohydrochloride], for which, in test [1], the response vs control in vivo at 20 mg/kg was 25% and the “antianxiety activity (in words, from Table II)” value is reported as “especially active as antianxiety agents”. In the test on reserpine-induced ptosis, this compound yielded an inhibition at 30 mg/kg of 63%.

Take `Cc1ccc(CC(C2=NNCCN2)c2ccccc2)cc1C` (stereo not drawn) [Example 12]: in test [1], the response vs control in vivo at 20 mg/kg came out at 33% and the “antianxiety activity (in words, from Table II)” value was “especially active as antianxiety agents”. This compound registered an inhibition at 30 mg/kg with reserpine-induced ptosis of 25%.

For `c1ccc(CC(C2=NNCCN2)c2ccc3c(c2)OCO3)cc1` (stereo not drawn) [Example 9], in test [1], the response vs control in vivo at 20 mg/kg came out at 33% and the “antianxiety activity (in words, from Table II)” value is “especially active as antianxiety agents”. This compound also yielded an inhibition at 30 mg/kg with reserpine-induced ptosis of 50%.

In the case of `Cc1cccc(CC(C2=NNCCN2)c2ccccc2)c1` (stereo not drawn) [Example 5], the response vs control in vivo at 20 mg/kg in test [1] was determined as 32%. Further, the inhibition at 30 mg/kg in the test on reserpine-induced ptosis worked out at 25%.

In the case of `CN1CCNC(C(Cc2ccc(Cl)cc2)c2ccccc2)=N1` (stereo not drawn) [Example 18, 3-(2-(4-Chlorophenyl)-1-phenylethyl)-1,4,5,6-tetrahydro-1-methyl-1,2,4-triazine monohydrochloride], the response vs control in vivo at 20 mg/kg in test [1] was determined as 77%. Moreover, at 30 mg/kg the inhibition in the test on reserpine-induced ptosis was 50%.

With `CC(=O)N1CCN(C)N=C1C(Cc1ccccc1)c1ccccc1` (stereo not drawn) [Example 19, 4-acetyl-3-(1,2-diphenylethyl)-1,4,5,6-tetrahydro-1-methyl-1,2,4-triazine monohydrochloride], in test [1], the response vs control in vivo at 20 mg/kg amounted to 77%. The compound also gave an inhibition at 30 mg/kg with reserpine-induced ptosis of 13%.

As for `Clc1cccc(Cl)c1CC(C1=NNCCN1)c1ccccc1` (stereo not drawn) [Example 13, 3-(2-(2,6-Dichlorophenyl)-1-phenylethyl)-1,4,5,6-tetrahydro-1,2,4-triazine monohydrochloride], the response vs control in vivo at 20 mg/kg in test [1] came to 39%. Moreover, the inhibition at 30 mg/kg in the test on reserpine-induced ptosis is 88%.

`Cl.Clc1ccc(CC(C2=NNCCN2)c2ccccc2)cc1` (stereo not drawn) [Example 2, 3-(2-(4-Chlorophenyl)-1-phenylethyl)-1,4,5,6-tetrahydro-1,2,4-triazine monohydrochloride]: in test [1], the response vs control in vivo at 20 mg/kg amounted to 13% and the “antianxiety activity (in words, from Table II)” value is reported as “especially active as antianxiety agents”. In addition, in the test on reserpine-induced ptosis, the inhibition at 30 mg/kg is 88%.

With `Clc1cccc(CC(C2=NNCCN2)c2ccccc2)c1` (stereo not drawn) [Example 7], the response vs control in vivo at 20 mg/kg in test [1] amounted to 75%. The inhibition at 30 mg/kg in the test on reserpine-induced ptosis came to 88%.

Consider `Cc1cccc(C(Cc2ccccc2)C2=NNCCN2)c1` (stereo not drawn) [Example 8], for which, in test [1], the response vs control in vivo at 20 mg/kg was 52%. This compound displayed an inhibition at 30 mg/kg with reserpine-induced ptosis of 38%.

On to `c1ccc(C(Cc2ccc3ccccc3c2)C2=NNCCN2)cc1` (stereo not drawn) [Example 16], for which, in test [1], the response vs control in vivo at 20 mg/kg is 39% and the “antianxiety activity (in words, from Table II)” value was “especially active as antianxiety agents”. In addition, in the test on reserpine-induced ptosis, 30 mg/kg produced 42% inhibition.

Regarding `COc1ccc(C(Cc2ccc(F)cc2)C2=NNCCN2)cc1` (stereo not drawn) [Example 3, 3-(2-(4-Fluorophenyl)-1-(4-methoxyphenyl)ethyl)-1,4,5,6-tetrahydro-1,2,4-triazine monohydrochloride], the response vs control in vivo at 20 mg/kg in test [1] was determined as 82%. The compound also registered an inhibition at 30 mg/kg in the test on reserpine-induced ptosis of 38%.

Turning to `c1ccc(CC(C2=NNCCN2)c2ccccc2)cc1` (stereo not drawn) [3-(1,2-diphenylethyl)-1,4,5,6-tetrahydro-1,2,4-triazine], the “antidepressant activity of prior-art compound (in words)” value with depression is given as “antidepressant”. Further, in the test with anxiety, the “antianxiety activity of prior-art compound (in words)” value was “essentially inactive”.

For `Cc1ccc(CC(C2=NNCCN2)c2ccccc2)cc1` (stereo not drawn) [Example 6], the response vs control in vivo at 20 mg/kg in test [1] was 62%. For the same compound, in the test on reserpine-induced ptosis, the inhibition at 30 mg/kg was found to be 50%.

`c1ccc(CC(C2=NNCCN2)c2cccc3ccccc23)cc1` (stereo not drawn) [Example 11]: the response vs control in vivo at 20 mg/kg in test [1] came out at 77%. Moreover, the inhibition at 30 mg/kg with reserpine-induced ptosis was 25%.

For `c1ccc(C(Cc2cccc3ccccc23)C2=NNCCN2)cc1` (stereo not drawn) [Example 15], the response vs control in vivo at 20 mg/kg in test [1] was 72%. Further, in the test with reserpine-induced ptosis, 30 mg/kg produced 13% inhibition.

As for `Cc1ccc(C(Cc2ccccc2)C2=NNCCN2)cc1` (stereo not drawn) [Example 4, 3-(1-(4-Methylphenyl)-2-phenylethyl)-1,4,5,6-tetrahydro-1,2,4-triazine monohydrochloride], the response vs control in vivo at 20 mg/kg in test [1] stood at 67%. Moreover, testing at 30 mg/kg with reserpine-induced ptosis gave an inhibition of 38%.

`Clc1ccc(CC(C2=NNCCN2)c2ccccc2)cc1Cl` (stereo not drawn) [Example 14]: the response vs control in vivo at 20 mg/kg in test [1] is 79%. The compound further came in with an inhibition at 30 mg/kg in the test on reserpine-induced ptosis of 63%.
